This is an account of results in ChEMBL document CHEMBL3886479, “1-H-pyrrolo[2,3-b]pyridine derivatives” (2016).

For orientation: IC50 means the concentration at which inhibition is half-maximal. Read a low IC50 as inhibition by little substance.

In this test the target is T1, 3-phosphoinositide-dependent protein kinase 1 (Homo sapiens, UniProt O15530).
T1 sequence (O15530 whole entry): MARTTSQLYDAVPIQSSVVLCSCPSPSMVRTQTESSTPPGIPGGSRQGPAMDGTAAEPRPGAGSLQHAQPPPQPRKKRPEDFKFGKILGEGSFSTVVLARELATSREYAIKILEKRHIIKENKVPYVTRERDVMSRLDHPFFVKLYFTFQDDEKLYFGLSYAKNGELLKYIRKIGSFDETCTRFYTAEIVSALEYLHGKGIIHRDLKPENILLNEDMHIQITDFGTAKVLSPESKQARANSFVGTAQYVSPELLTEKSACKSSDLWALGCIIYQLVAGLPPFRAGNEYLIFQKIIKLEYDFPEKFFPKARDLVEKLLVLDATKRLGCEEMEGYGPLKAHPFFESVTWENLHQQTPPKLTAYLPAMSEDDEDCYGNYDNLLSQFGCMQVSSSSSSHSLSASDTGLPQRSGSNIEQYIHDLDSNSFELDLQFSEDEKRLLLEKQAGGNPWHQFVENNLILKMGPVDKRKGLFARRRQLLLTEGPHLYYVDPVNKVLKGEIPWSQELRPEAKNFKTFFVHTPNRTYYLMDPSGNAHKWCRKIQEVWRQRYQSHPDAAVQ
Description: Luminex Assay: The cellular assay for the determination of the PDK1 kinase activity is carried out as a Luminex assay in the 96-well format. PC3 cells are sown at 20,000 cells per well in 100 ul of medium (45% of […]/45% of Ham's F12/10% of FCS) and incubated on the following day for 30 min with a serial dilution of the test substance (7 concentrations) under serum-free conditions. The cells are subsequently lysed using 90 ul of lysis buffer (20 mM tris/HCl pH 8.0, 150 mM NaCl, 1% of NP40, 10% of glycerol, 1% of phosphatase inhibitor I, 1% of phosphatase inhibitor II, 0.1% of protease inhibitor cocktail III, 0.01% of benzonase) per well, and the lysates are separated off from insoluble cell constituents by means of centrifugation through a 96-well filter plate (0.65 um). The lysates are incubated overnight at 4° C. with shaking with Luminex beads to which an anti-total PKB antibody is coupled. The detection is carried out on the following day by addition of a phospho-T308-PKB antibody and a species-specific peroxidase-labelled secondary antibody. In kind it is cell-based. Particulars: pc-3.

In turn, `Cn1cc(-c2cnc3[nH]cc(-c4cc(N(CCC#N)c5ccccc5)nc(N)n4)c3c2)cn1` gave an IC50 of 7.1 nM.
